{"source": "patent US20080176908A1", "about": "“Method of using squalene monooxygenase inhibitors to treat acne” (priority 2007, published 2008)", "origin": "cited, not measured here"}
{"conditions": "compared with 2.5% hydrocortisone; test details not given"}
{"smiles": "CN(CC=CC#CC(C)(C)C)Cc1cccc2ccccc12", "note": "[terbinafine, N,6,6-trimethyl-N-(naphthalene-1-ylmethyl)hept-2-en-4-yn-1-amine]", "anti-inflammatory ability": "greater anti-inflammatory ability than 2.5% hydrocortisone"}
{"smiles": "CN(C/C=C/c1ccccc1)Cc1cccc2ccccc12", "note": "[naftifine, (E)-N-cinnamyl-N-methyl-1-naphthalenemethylamine]", "anti-inflammatory ability": "greater anti-inflammatory ability than 2.5% hydrocortisone"}
{"smiles": "Cc1cc(C2CCCCC2)n(O)c(=O)c1", "note": "[Ciclopirox, 6-cylcohexyl-1-hydroxy-4-methyl-pyridin-2-one]", "anti-inflammatory ability": "greater anti-inflammatory ability than 2.5% hydrocortisone"}
